Laboratory results published in patent publication US7968526B2, “Antisense oligonucleotides directed to ribonucleotide reductase R2 and uses thereof in the treatment of cancer” (Lorus Therapeutics Inc., priority 2003, dated 2011).
“Also recorded” adds a separate entry of the source.

Key:
[1] = test system: MDA-MB-231 human breast cancer cells; test: MDA-MB-231 breast tumour xenograft in CD-1 nude mice, combination with taxol or doxorubicin (1.7); type: in vivo, human cells in mice; settings: doxorubicin 5 mg/kg i.v. weekly
Method: After 52 days the mice were sacrificed and the tumours weighed. […] Mitoxantrone was administered intravenously once at the beginning of the treatments at a dose of 2 mg/kg (FIG. 4A) or once a week for four weeks at a reduced dose of 0.8 mg/kg (FIG. 4B). All treatments were stopped at day 50 (FIG. 4A) or 48 (FIG. 4B), respectively. […] Mitoxantrone was administered intravenously once at the beginning of the treatments at a dose of 2 mg/kg (FIG. 5A) or once a week for four weeks at a reduced dose of 0.8 mg/kg (FIG. 5B). All treatments were stopped at day 42 (FIG. 5A) or 38 (FIG. 5B), respectively. […] A2058 is a metastatic melanoma cell line. […] All treatments were stopped at day 24. […] Taxol was administered intravenously once a week at a dose of 10 mg/kg for three (FIG. 7A) or four weeks (FIG. 7C). Doxorubicin was administered intravenously once a week at a dose of 5 mg/kg for first three weeks (FIG. 7A) or for two weeks (FIG. 7C). All treatments were stopped at day 33 (FIG. 7A) or at day 26 (FIG. 7C), respectively. […] In FIG. 7C, antitumour activities were estimated by the inhibition of tumour volume, which was measured with calipers. Each point represents mean tumour volume calculated from 10 animals per experimental group. […] Taxol was administered intravenously once a week for first three weeks and intraperitoneally once a week for next two weeks at a dose of 10 mg/kg. Cisplatin was administered intravenously once a week for first three weeks and intraperitoneally once a week for next two weeks at a dose of 4 mg/kg. All treatments were stopped at day 40. Antitumour activities were estimated by the inhibition of tumour volume, which was measured with caliper. Each point represents mean tumour volume calculated from 9 animals per experimental group.

[2] = test system: MDA-MB-231 human breast cancer cells; test: MDA-MB-231 breast tumour growth in CD-1 nude mice (3.3); type: in vivo, human cells in mice
Method: Treatments lasted for 14 days thereafter. Antitumour activities were estimated by the inhibition of tumour volume, which was measured with a caliper on four different occasions over the treatment period. Each point represents mean tumour volume calculated from 5 animals per experimental group. […] Control animals (control) received saline alone for the same period. At the end of the treatments, the animals were sacrificed, tumours were excised and their weights were measured. Each bar represents mean tumour weight calculated from 6 animals per experimental group. […] Treatments lasted for 24 days thereafter. Antitumour activities were estimated by the inhibition of tumour volume, which was measured with a caliper at two-day intervals over the treatment period. Each point represents mean tumour volume calculated from 4 animals per experimental group. […] Treatments lasted for 24 days thereafter. Antitumour activities were estimated by the inhibition of tumour volume, which was measured with a caliper at two-day intervals over the treatment period. Each point represents mean tumour volume calculated from 4 animals per experimental group. […] Each point represents mean tumour volume calculated from 5 animals per experimental group. […] Antitumour activities were estimated by the inhibition of tumour volume, which was measured with a caliper on four different occasions over 16-day period. Each point represents mean tumour volume calculated from 5 animals per experimental group. […] Antitumour activities were estimated by the inhibition of tumour volume, which was measured with a caliper at two-day intervals over the treatment period. Each point represents mean tumour volume calculated from 5 animals per experimental group. […] Antitumour activities were estimated by the inhibition of tumour volume, which was measured with a caliper at various time intervals over the span of 30 days. Each point represents mean tumour volume calculated from 6 animals per experimental group. […] Antitumour activities were estimated by the inhibition of tumour volume, which was measured with a caliper. […]

5′-GGCTAAATCGCTCCACCAAG-3′ (all phosphorothioate, sugars by position and methylation of C not given here) [SEQ ID NO: 1, fully phosphorothioated antisense oligonucleotide that hybridizes to the coding region of R2 mRNA]
Tumour weight as % of saline control ([1]; MDA-MB-231 (breast), CD-1, SEQ ID NO:1 10 mg/kg i.v. every other day, Taxol 10 mg/kg i.v. weekly): 12.6% | Antitumour effect (tumour weight / volume, FIG. 7) ([1]; MDA-MB-231, CD-1 nude mice, oligonucleotides 10 mg/kg i.v. every other day, taxol 10 mg/kg): delay of tumour growth compared to saline control in all three experiments; also recorded: superior to the inhibitory effects observed with taxol or doxorubicin alone | Inhibition of tumour size ([2]; Human Breast Adenocarcinoma): Inhibition of tumour size by approximately 80% | Inhibition of tumour weight ([2]; Human Breast Adenocarcinoma, Day 31 after tumour implantation): ~80% on Day 31 after tumour implantation | Inhibitory effect on tumour growth (tumour volume, FIG. 18B) ([2]; MDA-MB-231, CD-1 nude mice, 10 mg/kg i.v. every other day, 24 days): strong inhibitory effects on the growth of human breast carcinoma
